# Assay results taken from patent publication US12458638B2, “Method of stimulating neutrophil survival and reducing neutropenia” (BEYONDSPRING PHARMACEUTICALS, INC., priority 2017, dated 2025).
# Read-outs that look alike come from different tables or passages of the source.
# B1: G-CSF: Granulocyte-colony stimulating factor; G-CSF compounds include filgrastim and pegfilgrastim (protein, UniProt P09919 31-207, looked up)
# Granulocyte …: TPLGPASSLPQSFLLKCLEQVRKIQGDGAALQEKLVSECATYKLCHPEELVLLGHSLGIPWAPLSSCPSQALQLAGCLSQLHSGLFLYQGLLQALEGISPELGPTLDTLQLDVADFATTIWQQMEELGMAPALQPTQGAMPAFASAFQRRAGGVLVASHLQSFLEVSYRVLRHLAQP
# B2: Neulasta: pegfilgrastim (Neulasta®), a granulocyte colony-stimulating factor (G-CSF) compound (protein, chains of the INN, looked up)
# chain: TPLGPASSLPQSFLLKCLEQVRKIQGDGAALQEKLCATYKLCHPEELVLLGHSLGIPWAPLSSCPSQALQLAGCLSQLHSGLFLYQGLLQALEGISPELGPTLDTLQLDVADFATTIWQQMEELGMAPALQPTQGAMPAFASAFQRRAGGVLVASHLQSFLEVSYRVLRHLAQP
# Legend:
# [1] = system: docetaxel-induced neutropenia; assay: Randomized double blind study, plinabulin vs pegfilgrastim in solid tumor patients receiving docetaxel (Example 4); format: in vivo, human; conditions: for neutrophil count through time (FIG. 1): after docetaxel 75 mg/m^2
# Protocol: A randomized, double blind study to evaluate duration of severe neutropenia with plinabulin versus pegfilgrastim in patients with solid tumors receiving docetaxel myelosuppressive chemotherapy was performed. Patients were randomly assigned to the following arms (with the respective sample sizes): Arm 1: Docetaxel (75 mg/m^2)+Pegfilgrastim (6 mg) (n=14); Arm 2: Docetaxel (75 mg/m^2)+Plinabulin (20 mg/m^2) (n=14); Arm 3: Docetaxel (75 mg/m^2)+Plinabulin (10 mg/m^2) (n=14); and Arm 4: Docetaxel (75 mg/m^2)+Plinabulin (5 mg/m^2) (n=13).
# [2] = system: NSCLC patients with a measurable lesion; conditions: human, in vivo
# [3] = Safety / product profile of plinabulin vs G-CSF in patients (bone pain, hospitalization, hypertension, laboratory parameters); format: in vivo, human
# [4] = system: neutropenia caused by chemotherapies; assay: Animal model studies of chemotherapy-caused neutropenia; format: in vivo; conditions: animal models; docetaxel, cisplatin, adriamycin, cyclosphosphamide, topotecan, gemcitabine
# Source text: Clinical complications of neutropenia (febrile neutropenia, infections, sepsis, and mortality) occur with Grade 4 Neutropenia, as compared to with Grade 2 or 3 Neutropenia. For regulatory approval, the FDA and Health Authorities focus on Grade 4 Neutropenia data.
# [5] = system: docetaxel-induced neutropenia; assay: Grade 4 neutropenia in patients on docetaxel with or without plinabulin; format: in vivo, human; conditions: for proportion of patients with Grade 4 neutropenia: Cycle 1, Day 8, ANC<0.5×10^9/L, docetaxel alone vs plinabulin added to docetaxel, p<0.0003
# [6] = system: chemotherapy-induced febrile/severe neutropenia; assay: Reported FN frequency and DSN with docetaxel or TAC chemotherapy, with or without G-CSF; format: in vivo, human; conditions: docetaxel monotherapy 75 mg/m^2 without G-CSF
# Protocol: The frequency of FN with docetaxel monotherapy (100 mg/m^2)+G-CSF is reported to be 1% in Cycle 1. […] 2002; 20:727-731.
# The FN percentage is about 12.7% with 75 mg/m^2 docetaxel. Based on this range of FN and the relationship established between FN and DSN, the assumption is that, with docetaxel monotherapy at a dose of 75 mg/m^2 without G-CSF, the median DSN is estimated to be 4-5 days.
# The margin can be selected based on the data that Taxotere/Adriamycin/cyclophosphamide (TAC) chemotherapy can induce a median DSN of 7 days in breast cancer patients receiving no G-CSF treatment, while G-CSF treatment reduces the mean DSN for this chemotherapy to 1.4 days (95% CI: 1.07-1.69) as shown in pegfilgrastim Study. Based on this a non-inferiority limit of 1 day is derived.
# [7] = system: chemotherapy-induced febrile/severe neutropenia; conditions: cited from earlier work
# [8] = system: docetaxel-induced severe neutropenia; assay: Calculated DSN from Day 8 neutrophil nadir values (simulation, Deming regression); format: in vivo, human; conditions: from observed Day 8 neutrophil (nadir) values, Cycle 1
# Source text: DSN is obtained using the following methods (described below) for generation of ANC data and the observed neutrophil values on Day 8/Cycle 1 in the Phase 2 study. […] The study may assume that the shape of the time/neutrophil recovery curve in plinabulin-treated patients is indistinguishable from the time/neutrophil recovery curve for filgrastim and its biosimilars.
# Mean values and standard deviations of ANC during the 21-day follow-up period can be obtained from the reference. […] The simulation would then also generate the projected number of days with severe neutropenia, (i.e., the DSN).
# CYP3A4 = CYP3A4 (Homo sapiens, UniProt P08684); conditions: with the use of strong CYP3A4 inhibitors; cited from earlier work
# [9] = G-CSF, Table 1; cited from earlier work
# [10] = most common adverse reactions; cited from earlier work
# [11] = Plinabulin 5 mg/m2 + docetaxel 75 mg/m^2
# [12] = Plinabulin 10 mg/m2 + docetaxel 75 mg/m^2
# [13] = Plinabulin 20 mg/m2 + docetaxel 75 mg/m^2
# [14] = Neulasta 6 mg + docetaxel 75 mg/m^2
# Sequence of CYP3A4 (P08684 whole entry): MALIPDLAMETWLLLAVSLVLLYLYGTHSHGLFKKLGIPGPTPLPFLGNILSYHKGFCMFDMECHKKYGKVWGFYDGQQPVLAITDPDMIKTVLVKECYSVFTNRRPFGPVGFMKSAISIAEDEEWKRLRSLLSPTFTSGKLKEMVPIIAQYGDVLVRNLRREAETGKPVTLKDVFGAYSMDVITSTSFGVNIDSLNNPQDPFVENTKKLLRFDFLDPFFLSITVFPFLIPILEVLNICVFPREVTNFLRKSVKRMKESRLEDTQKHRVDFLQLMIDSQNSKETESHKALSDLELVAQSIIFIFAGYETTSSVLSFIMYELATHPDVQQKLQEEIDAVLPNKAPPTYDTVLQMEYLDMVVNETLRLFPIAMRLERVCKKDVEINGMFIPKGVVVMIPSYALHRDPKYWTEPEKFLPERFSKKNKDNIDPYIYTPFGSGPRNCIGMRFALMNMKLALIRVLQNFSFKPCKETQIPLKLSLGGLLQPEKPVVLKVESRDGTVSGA
molecule,measurement,setting,value
"CC(C)(C)c1[nH]cnc1/C=c1\[nH]c(=O)/c(=C/c2ccccc2)[nH]c1=O [Plinabulin, (3Z,6Z)-3-Benzylidene-6-{[5-(2-methyl-2-propanyl)-1H-imidazol-4-yl]methylene}-2,5-piperazinedione]",DSN,[1]; [11],0.46 days
same,Grade 4 Incidence (%),[1]; [11],23%
same,DSN,[1]; [12],0.43 days
same,Grade 4 Incidence (%),[1]; [12],21%
same,DSN,[1]; [13],0.38 days
same,Grade 4 Incidence (%),[1]; [13],15%
same,neutrophil count through time (FIG. 1),[1],started to rise again on day 10
same,treatment of neutropenia induced by chemotherapeutic agent,"[1]; human, in vivo",effective in treating neutropenia
same,Immune-Related AEs (IR-AEs),[2],without increasing Immune-Related AEs
same,"Grade 3 transient hypertension, patients",[3]; 20 mg/m^2 plinabulin,5%
same,"Grade 3 transient hypertension, patients",[3]; 30 mg/m^2 plinabulin,20%
same,Bone Pain (% of patients),"[3]; Plinabulin, Table 1",<4%
same,Hospitalization (% of patients),"[3]; Plinabulin, Table 1",6%
same,"Bone pain, patients reporting",[3]; patients receiving plinabulin,4%
same,changes in hematology or chemistry laboratory parameters,"[3]; plinabulin monotherapy, solid tumor patients, no chemotherapy",did not experience any clinically significant deleterious changes
same,prevention of neutropenia caused by chemotherapies,[4],prevent neutropenia
same,proportion of patients with Grade 4 neutropenia,[5],4.6%
same,"clinical sequelae associated with docetaxel-induced neutropenia (sepsis, infections, hospitalizations, docetaxel dose reductions, G-CSF use)","[5]; human, in vivo",reduced
CC(=O)O[C@@]12CO[C@@H]1C[C@H](O)[C@@]1(C)C(=O)[C@H](O)C3=C(C)[C@@H](OC(=O)[C@H](O)[C@@H](NC(=O)OC(C)(C)C)c4ccccc4)C[C@@](O)([C@@H](OC(=O)c4ccccc4)[C@H]21)C3(C)C [docetaxel],estimated median DSN,[6],4 to 5 days
same,FN percentage,[7]; 75 mg/m^2 docetaxel,about 12.7%
same,frequency of FN,"[7]; Cycle 1, docetaxel 100 mg/m^2 without G-CSF",11%
same,frequency of FN,"[7]; over all cycles, docetaxel 60 mg/m^2 without G-CSF",19.8%
same,frequency of FN,"[7]; over all cycles, docetaxel 100 mg/m^2 without G-CSF",17%
same,proportion of patients with Grade 4 neutropenia,[5],33.3%
same,calculated mean DSN,[8],1.076 days
same,increase of docetaxel exposure,CYP3A4,approximately 2 fold
B1,Bone Pain (% of patients),[9],>20%
same,Hospitalization (% of patients),[9],20%
same,mean DSN,"[7]; G-CSF treatment with TAC chemotherapy, 95% CI: 1.07-1.69",1.4 days
B2,DSN,[1]; [14],0.14 days
same,Grade 4 Incidence (%),[1]; [14],14%
same,neutrophil count through time (FIG. 1),[1],had an initial increase and then began to drop after 10 days
same,"bone pain, patients",[10],31%
same,"pain in an extremity, patients",[10],9%
